For series [1] the following is noted: instrument: DT, stepped-field.
For series [2] the following is noted: instrument: DT, single field, calibrated with Agilent tune mix (Agilent).
For series [3] the following is noted: instrument: TW, calibrated with phosphatidylcholines (ESI+) and phosphatidylethanolamines (ESI-).
For series [4] the following is noted: [M+H]+; instrument: TW.

The structures appear in SMILES notation. “And” between values parts separate entries of the source, which are not always exact repeats. Identical values can stand only once.

With `CCCCCCCC/C=C\CCCCCCCC(=O)OC[C@@H](O)COP(=O)(O)O` [LPA(18:1)], the “collision cross section (N2)” value in series [1] ([M-H]-) amounted to 198.8 Å².
Take `CCCCCC/C=C\CCCCCCCC(=O)OC[C@@H](O)COP(=O)(O)OCCN` [LPE(16:1)]: the “collision cross section (N2)” value in series [2] ([M-H]-) was found to be 203.8 Å²; in series [1] ([M-H]-), 201.1 Å².
Turning to `CCCCCC/C=C\CCCCCCCCCC(=O)O[C@H](CO)COP(=O)(O)OCCN` [LPE(18:1)], the “collision cross section (N2)” value came out at 215.8 Å² in series [2] ([M+H]+); 222.1 Å² in series [2] ([M+Na]+); 211.3 Å² in series [2] ([M-H]-); 210.1 Å² in series [1] ([M-H]-); 214.2 Å² in series [3] ([M+H]+); 219 Å² in series [3] ([M+Na]+). The “collision cross section (N2)” value in series [3] ([M-H]-) stood at 210.2 Å².
For `CCCCCCCCCCCCCCCC(=O)OC[C@@H](O)COP(=O)(O)OC[C@@H](O)CO` [LPG(16:0)], in series [1] ([M-H]-), the “collision cross section (N2)” value is given as 214.3 Å².
With `CCCCCC/C=C\CCCCCCCC(=O)OC[C@@H](O)COP(=O)(O)OC[C@@H](O)CO` [LPG(16:1)], the “collision cross section (N2)” value in series [1] ([M-H]-) is given as 212 Å².
Take `CCCCCCCCCCCCCCCC(=O)OC[C@@H](O)COP(=O)(O)O[C@H]1C(O)C(O)C(O)[C@@H](O)C1O` (stereo partly specified) [LPI(16:0)]: the figures for the “collision cross section (N2)” value in series [2] ([M-H]-) and in series [1] ([M-H]-) were 229.1 Å² and 228.7 Å², respectively.
On to `CCCCCCCC/C=C\CCCCCCCCCC(=O)O[C@H](COC(=O)CCCCCCCCCCC)COP(=O)(O)O` [PA(16:0/16:1)], for which the “collision cross section (N2)” value in series [1] ([M-H]-) worked out at 251.8 Å².
`CCCCCCCCCC/C=C\CCCCCCCCCC(=O)O[C@H](COC(=O)CCCCCCCCCCCCC)COP(=O)(O)O` [PA(18:0/18:1)]: the “collision cross section (N2)” value in series [1] ([M-H]-) was 268 Å².
Regarding `CCCCC/C=C\C/C=C\CCCCCCCCCCCC(=O)O[C@H](COC(=O)CCCCCCCCCCCCC)COP(=O)(O)O` [PA(18:1/18:1)], the “collision cross section (N2)” value in series [1] ([M-H]-) amounted to 264 Å².
On to `CCCCC/C=C\C/C=C\C/C=C\CCCCCCC(=O)O[C@H](COCCCCCCCCCCCCCCCC)COP(=O)([O-])OCC[N+](C)(C)C` [PC(o36:3)], for which the “collision cross section (N2)” value in series [1] ([M+H]+) is recorded as 301 Å².
In the case of `CC/C=C\C/C=C\C/C=C\C/C=C\C/C=C\CCCC(=O)O[C@H](COCCCCCCCCCCCCCCCC)COP(=O)([O-])OCC[N+](C)(C)C` [PC(o36:5)], the “collision cross section (N2)” value in series [1] ([M+H]+) was found to be 293.8 Å².
For `CCCCC/C=C\C/C=C\CCCCCCCC(=O)O[C@H](COC(=O)CCCCCCCCCCCCCCC)COP(=O)(O)OCCN` [PE(16:1/18:1)], in series [1] ([M+H]+), the “collision cross section (N2)” value turned out to be 283.8 Å².
As to `CCCCC/C=C\C/C=C\CCCCCCCCCCCC(=O)O[C@H](COC(=O)CCCCCCC/C=C\C/C=C\CCCCC)COP(=O)(O)OCCN` [PE(40:4)], the “collision cross section (N2)” value in series [2] ([M+H]+) was 288.1 Å²; in series [2] ([M+Na]+), 293.3 Å²; in series [2] ([M-H]-) it was 278.5 Å²; in series [1] ([M-H]-), 287.9 Å² and 287.8 Å²; in series [3] ([M+H]+) it was 286.8 Å²; in series [3] ([M-H]-) it was 277.3 Å².
As for `CCCCC/C=C\C/C=C\C/C=C\CCCCCCC(=O)O[C@H](COCCCCCCCCCCCCCCCCCC)COP(=O)(O)OCCN` [PE(o38:3)], the “collision cross section (N2)” value in series [1] ([M+H]+) worked out at 297.6 Å².
Consider `CCCC/C=C\CCCCCCCC(=O)OC[C@H](COP(=O)(O)OC[C@@H](O)CO)OC(=O)CCCCCCC/C=C\CCCCCCCC` [PG(16:1/16:1)], for which, in series [1] ([M-H]-), the “collision cross section (N2)” value was found to be 267.1 Å².
`CC/C=C\C/C=C\C/C=C\C/C=C\CCCCC(=O)OC[C@H](COP(=O)(O)OC[C@@H](O)CO)OC(=O)CCCCCCCCCCCCCCCCC` [PG(36:4)]: the “collision cross section (N2)” value in series [2] ([M+NH4]+) is listed as 283.4 Å²; in series [1] ([M-H]-), 278 Å²; in series [3] ([M+Na]+), 281 Å²; in series [3] ([M-H]-), 271.3 Å².
Turning to `CCCCCCCCCCCCCCCC(=O)OC[C@H](COP(=O)(O)O[C@H]1C(O)C(O)C(O)[C@@H](O)C1O)OC(=O)CCCCCCCCCCC` (stereo partly specified) [PI(12:0/16:0)], the “collision cross section (N2)” value in series [1] ([M-H]-) came to 273.5 Å².
For `CCCCCCC/C=C\CCCCCCCC(=O)O[C@H](COC(=O)CCCCCCCCCCCC)COP(=O)(O)O[C@H]1C(O)C(O)C(O)[C@@H](O)C1O` (stereo partly specified) [PI(14:0/16:1)], in series [1] ([M-H]-), the “collision cross section (N2)” value is given as 278.4 Å².
For `CCCCC/C=C\C/C=C\CCCCCCCCCCCC(=O)O[C@H](COC(=O)CCCCCCCCCCC)COP(=O)(O)O[C@H]1C(O)C(O)C(O)[C@@H](O)C1O` (stereo partly specified) [PI(16:1/18:1)], in series [1] ([M-H]-), the “collision cross section (N2)” value worked out at 289.2 Å².
Take `CCCCC/C=C\C/C=C\C/C=C\CCCCCCC(=O)O[C@H](COC(=O)CCCCCCC/C=C\CCCCCC)COP(=O)(O)O[C@H]1C(O)C(O)C(O)[C@@H](O)C1O` (stereo partly specified) [PI(36:4)]: the “collision cross section (N2)” value in series [2] ([M+H]+) stood at 296.5 Å²; in series [2] ([M+NH4]+), 297.3 Å²; in series [2] ([M+Na]+) it was 294.5 Å²; in series [1] ([M-H]-) it was 297.2 Å²; in series [3] ([M+Na]+), 290.5 Å²; in series [3] ([M-H]-), 286.1 Å².
For `CCCCC/C=C\C/C=C\CCCCCCCCCCCC(=O)O[C@H](COC(=O)CCCCCCC/C=C\CCCCCC)COP(=O)(O)O[C@H]1C(O)C(O)C(O)[C@@H](O)C1O` (stereo partly specified) [PI(38:3)], the “collision cross section (N2)” value in series [2] ([M+H]+) is 304.2 Å²; in series [2] ([M+NH4]+), 306 Å²; in series [2] ([M+Na]+), 303.1 Å²; in series [2] ([M-H]-), 293.7 Å²; in series [1] ([M-H]-), 301.7 Å² and 303.9 Å²; in series [3] ([M+Na]+) it was 298.5 Å². The “collision cross section (N2)” value in series [3] ([M-H]-) was determined as 293 Å².
As to `CCCCC/C=C\C/C=C\CCCCCCCCCCCC(=O)O[C@H](COC(=O)CCCCCCCCCCC)COP(=O)(O)OC[C@H](N)C(=O)O` [PS(16:1/18:1)], the “collision cross section (N2)” value in series [1] ([M-H]-) worked out at 276.9 Å².
Consider `CCCCCCCCCC/C=C\CCCCCCCCCC(=O)O[C@H](COC(=O)CCCCCCCCCCCCCCC)COP(=O)(O)OC[C@H](N)C(=O)O` [PS(38:1)], for which the entries for the “collision cross section (N2)” value in series [2] ([M+H]+) and in series [1] ([M-H]-) were 292.9 Å² and 296.1 Å², respectively.
Turning to `CCCCC/C=C\C/C=C\CCCCCCCCCCCC(=O)O[C@H](COC(=O)CCCCCCC/C=C\CCCCCC)COP(=O)(O)OC[C@H](N)C(=O)O` [PS(38:3)], the figures for the “collision cross section (N2)” value in series [1] ([M-H]-) and in series [3] ([M-H]-) were 292.4 Å² and 281.7 Å², respectively.
With `CCCCCCCCCC/C=C\CCCCCCCCCC(=O)O[C@H](COC(=O)CCCCCCCCCCCCCCCCC)COP(=O)(O)OC[C@H](N)C(=O)O` [PS(40:1)], in series [1] ([M-H]-), the “collision cross section (N2)” value is 302.2 Å².
As to `COC(=O)NC(=S)Nc1ccccc1NC(=S)NC(=O)OC` [Thiophanate-methyl], the “collision cross section (N2)” value in series [4] is on record as 174.24 Å².
Turning to `CCCNC[C@]1(O)[C@H](C)O[C@@H](O[C@H]2[C@H](C)[C@@H](O[C@@H]3O[C@H](C)C[C@H](N(C)C)[C@H]3O)[C@](C)(O)C[C@@H](C)CN[C@H](C)[C@@H](O)[C@](C)(O)[C@@H](CC)OC(=O)[C@@H]2C)C[C@@]1(C)OC` [Tulathromycin], the “collision cross section (N2)” value in series [4] is 286.4 Å².

Source of the values: the C3SDB collision cross section collection.
